Where two headings read alike, the source gives them in different places.
What was measured:
Type in all cases: cell-based
25(OH)D3-1-hydroxylase = target: T1, 25(OH)D3-1-hydroxylase (Homo sapiens, UniProt O15528); assay: Inhibition of vitamin D3-1-hydroxylase (oxidation of 3H-25(OH)D3, test a)); conditions: for IC50: test a), human keratinocytes, 1 hour, without calcitriol pretreatment
T1 construct: Confluent cultures of human keratinocytes in KGM; endogenous in cells; host or cells: normal human epidermal keratinocytes (adult skin from mammary reduction), generally second passage
T1 sequence (O15528 1-508): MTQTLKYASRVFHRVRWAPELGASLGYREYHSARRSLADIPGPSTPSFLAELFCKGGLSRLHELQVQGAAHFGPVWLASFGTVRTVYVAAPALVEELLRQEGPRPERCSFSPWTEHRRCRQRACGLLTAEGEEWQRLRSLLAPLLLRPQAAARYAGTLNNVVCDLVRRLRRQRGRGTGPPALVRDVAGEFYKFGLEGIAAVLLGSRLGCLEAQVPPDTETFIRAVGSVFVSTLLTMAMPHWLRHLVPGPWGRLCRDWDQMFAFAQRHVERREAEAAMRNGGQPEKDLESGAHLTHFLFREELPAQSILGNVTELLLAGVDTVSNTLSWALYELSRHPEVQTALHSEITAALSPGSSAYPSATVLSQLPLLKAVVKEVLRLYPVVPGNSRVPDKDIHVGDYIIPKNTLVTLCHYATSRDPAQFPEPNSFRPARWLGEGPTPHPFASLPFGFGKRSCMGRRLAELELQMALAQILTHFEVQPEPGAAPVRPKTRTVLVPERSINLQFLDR
Description: Activity of the 1-hydroxylase:
(§1) a) Selective inhibition of Vitamin D3--hydroxylases:
(§2) Confluent cultures of human keratinocytes in KGM at low calcium (0.06 mM) have a high capacity to produce calcitriol via the 1-hydroxylase, however, activities of sequential metabolism via side chain oxidation are almost entirely lacking. Therefore, the inhibition of the 1-hydroxylase in the confluent cultures is determined directly, and the inhibition of sequential metabolism after up-regulation of the respective hydroxylases, e.g. the 24-hydroxylase, is determined by an overnight (17 hours) pretreatment with 10 nM of calcitriol as described by Bikle et al. (1986) (supra).
(§3) The activities of the 1-hydroxylase and of particular steps in the sequential metabolism [e.g. formation of 1,24,25(OH)3 D3+1,24oxo,25(OH)2 D3] which still retain calcitriol-like activities, the formation of 3-epi calcitriol metabolites, of polar metabolites retained in the water phase and those indicative of side-chain cleavage and their inhibition by the test compounds are determined by following the oxidation of ^3 H-25(OH)D3 (Amersham; specific activity about 0.61 mCi/nmole) as follows:
(§4) Confluent human keratinocytes in 1 ml of KGM and in 6-well plates are incubated in duplicate at 37° with ^3 H-25(OH)D3 for 1 hour (1-hydroxylase), 4 hours (sequential metabolism) and for a range of time interals between 1 and 24 hours, without and after preincubation with 10 nM of calcitriol, and without and with test inhibitory compounds added in a concentration range between 0 and 10 μM. Thereafter, the reaction is stopped with 1 ml of methanol per well, the cells are scraped off, transferred to a test tube together with the supernatant and two washings (with 1 ml of methanol and 0.8 ml of water).

[1] = target: T2, 25-hydroxyvitamin D3-hydroxylases which attack the C20-27-side chain of vitamin D3 (Homo sapiens, UniProt Q07973); assay: Inhibition of side chain metabolism / vitamin D3-hydroxylases attacking the C20-27 side chain in calcitriol-pretreated keratinocytes (test a)); conditions: for inhibition of 25-hydroxyvitamin D3-hydroxylases which attack the C20-27 side chain (in words): selectivity versus calcitriol synthesis; for IC50: test a), human keratinocytes, pretreated with 10 nM calcitriol
T2 construct: Confluent human keratinocytes in 1 ml of KGM and in 6-well plates; endogenous in cells; host or cells: normal human epidermal keratinocytes pretreated overnight (16-17 h) with 10 nM calcitriol
T2 sequence (Q07973 36-514): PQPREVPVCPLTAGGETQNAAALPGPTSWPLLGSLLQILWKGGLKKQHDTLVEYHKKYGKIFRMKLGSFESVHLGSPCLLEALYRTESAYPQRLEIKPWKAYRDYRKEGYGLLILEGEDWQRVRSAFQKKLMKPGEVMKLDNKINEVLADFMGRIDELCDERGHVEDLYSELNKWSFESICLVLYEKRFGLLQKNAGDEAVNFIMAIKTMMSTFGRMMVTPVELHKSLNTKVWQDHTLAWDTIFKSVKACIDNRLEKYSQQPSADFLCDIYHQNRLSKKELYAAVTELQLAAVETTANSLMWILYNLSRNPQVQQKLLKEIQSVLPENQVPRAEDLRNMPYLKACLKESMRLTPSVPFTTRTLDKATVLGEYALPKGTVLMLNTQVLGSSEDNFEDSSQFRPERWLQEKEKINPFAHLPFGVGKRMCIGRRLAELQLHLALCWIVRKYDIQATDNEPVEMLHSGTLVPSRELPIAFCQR
Description: This can be determined in confluent cultures of human keratinocytes directly, while for determination of the activity of the hydroxylases attacking the C20-27--side chain a 16 hours pretreatment schedule of the confluent cultures with 1,25(OH)2 D3 (10 nM) has to precede which upregulates these activities (both methods are described in Bikle, D. D. et al., J. Clin. Invest. 78, 557 [1986]).
as §1, §2, §3, §4

human keratinocytes = assay: 3H-Thymidine incorporation into human keratinocytes, antiproliferative effects of vitamin D metabolites in the presence of inhibitors (test b)); conditions: Keratinocyte; test b)
Description: Normal human keratinocytes are isolated from fresh adult skin obtained from mammary reduction and immediately used under sterile conditions. […] These conditions are chosen in order to avoid undefined contributions from vitamin D--metabolites possibly retained in the serum and/or feeder layer. After separation of the epidermis from the dermis with a sterile dermatome the epidermis is incubated in a 0.25% trypsin solution for 45 minutes at 37°. Thereafter the cells are scraped off and put in 50 ml of HBSS containing 10% FCS to block further trypsin digestion and centrifuged at 2000 rpm for 2 minutes. The resulting cell pellet suspended in KGM, a defined serum-free medium at low (0.06 mM) calcium concentration containing 0.1 ng/ml EGF, 5 μg/ml insulin, 0.5 μg/ml hydrocortisone, bovine pituitary extract and antibiotics (gentamycin, amphothericin) gives the primary culture. After 24 hours at 37° in an incubator with carbogen gassing (95% O2 /5% CO2) the unattached cells are removed, the flask washed and provided with fresh KGM. The culture medium is changed then every alternate day and the cells are passaged when they reach 80-90% confluency (usually 6 to 10 days after plating). For passaging old KGM is removed and the attached keratinocytes displaced by a short treatment (5 minutes) with 0.125% of trypsin, then put into HBSS+FCS, centrifuged and eventually resuspended in KGM in such a way that 1 plate of primary culture yields 3 plates first passage cells. In order to expand the final cell number keratinocytes are further cultivated as described above and generally used in their second passage.
^3 H-Thymidine incorporation is measured in 96-well plates as follows: Keratinocytes in 200 μl of KGM at low calcium concentration are plated at an initial density of 10^4 cells per well (second passage) and kept for 24 hours at 37° in an incubator with carbogen gassing (95% O2 /5% CO2). […]
Harvesting is done on a Filtermate 196-Harvester (Packard-Canberra). […] 50 μl of scintillation cocktail (MicroScint O, Packard) are added and ^3 H-activity is counted on a Microplate Scintillation Counter (Topcount, Packard Canberra).
Data are used as means ±SEM (n=3). The IC50 -values for the inhibition of proliferation by the vitamin D--metabolites in the presence of varying concentrations of inhibitors of side chain metabolism and vice versa are assessed by plotting the inverse proliferation rate versus one inhibitor concentration, with the concentration of the other inhibitors kept constant (Dixon Plot). Independent of the mechanism of inhibition the IC50 -values can be read in this plot from the intercept on the x-axis.

[2] = read-out: IC50 for stabilization of 3-epi 1,25(OH)2 D3 levels
[3] = read-out: IC50 for stabilization of levels of the sum of 1,25(OH)2 D3, 1,24,25(OH)3D3 and 1,24oxo,25(OH)2 D3
[4] = in presence of 1α,25(OH)2 D3, read-out: IC50 as regards the concentration required to double the antiproliferative effect of 1α,25(OH)2 D3
[5] = in presence of 25(OH)D3, read-out: IC50 as regards the concentration required to double the antiproliferative effect of 25(OH)D3

Row | SMILES | interference with calcitriol synthesis via the 25(OH)D3-1-hydroxylase (in words) (25(OH)D3-1-hydroxylase) | IC50 (25(OH)D3-1-hydroxylase) | inhibition of 25-hydroxyvitamin D3-hydroxylases which attack the C20-27 side chain (in words) [1] | IC50 [1, 2] | IC50 [1, 3] | IC50 (human keratinocytes; [4]) | IC50 (human keratinocytes; [5])
1 | O=C(NC[C@H](c1ccccc1)n1ccnc1)c1ccc(-c2ccc(Cl)cc2)cc1 [Example 8, N-[4-(4-Chlorophenyl)benzoyl]-2-(1H-imidazol-1-yl)-2(S)-phenyl-1-aminoethane] | without interfering with its synthesis | 0.53 µM | selective inhibitors | 0.04 µM | 0.045 µM | 0.03 µM | 0.011 µM
2 | O=C(NC[C@@H](c1ccccc1)n1ccnc1)c1ccc(-c2ccc(Cl)cc2)cc1 [Example 9, N-[4-(4-Chlorophenyl)benzoyl]-2-(1H-imidazol-1-yl)-2(R)-phenyl-1-aminoethane] | without interfering with its synthesis | 0.62 µM | selective inhibitors | 0.012 µM | 0.019 µM | 0.035 µM | 0.012 µM
